# Measured values taken from DBAASP.
# Several values for one entry are separate records, joined by “and”; a condition that tells them apart may be missing. Equal values may be shown once.
# Columns and labels:
# Experiment in all cases: ≥ marks a high value that may be exact or a test limit, other limits are often not marked, values filed in µg/mL are converted to µM
# [1] = system: Candida parapsilosis ATCC 22019
# [2] = system: Candida albicans
# [3] = system: Candida tropicalis
# [4] = system: Candida glabrata ATCC 15126
# [5] = system: Candida krusei ATCC 6258
# [6] = system: Candida tropicalis ATCC 13803
# [7] = system: Candida albicans SC5314
# [8] = system: Candida parapsilosis
# [9] = system: Candida glabrata
# [10] = system: Staphylococcus aureus ATCC 25923
# [11] = system: Candida glabrata 090902
# [12] = system: Pseudomonas aeruginosa CGMCC 1.50
# [13] = system: Klebsiella pneumoniae 08040724
# [14] = system: Nocardia asteroides 201118
# [15] = system: Enterococcus faecalis 981
# [16] = system: Escherichia coli ATCC 25922
# [17] = system: Streptococcus sanguinis ATCC 10556
# [18] = system: Streptococcus mutans UA159
# [19] = system: Streptococcus sobrinus ATCC 6715
# [20] = system: Staphylococcus aureus ATCC 2592
# [21] = system: Nocardia asteroides
# [22] = system: Bacillus cereus ATCC 10876
# [23] = system: Enterococcus faecalis ATCC 29212
# [24] = system: Aeromonas sobria
# [25] = system: Streptococcus agalactiae ATCC 27956
# [26] = system: Staphylococcus aureus
# [27] = system: Staphylococcus aureus ATCC 6538
# [28] = system: Streptococcus dysgalactiae subsp. dysgalactiae ATCC 27957
# [29] = system: Proteus vulgaris
# [30] = system: Pseudomonas aeruginosa 091412
# [31] = system: Stenotrophomonas maltophilia
# [32] = system: Klebsiella pneumoniae
# [33] = system: Escherichia coli 091335
# [34] = system: Staphylococcus haemolyticus
# [35] = system: Enterococcus faecium 091299
# [36] = system: Klebsiella oxytoca
# [37] = system: Proteus mirabilis
# [38] = system: Streptococcus equi subsp. zooepidemicus ATCC 43079
# [39] = system: Pseudomonas aeruginosa 091411
# [40] = system: Cutibacterium acnes ATCC 11827
smiles,measurement,setting,value
CC(C)C[C@H](NC(=O)[C@H](CC(C)C)NC(=O)[C@H](Cc1ccc(O)cc1)NC(=O)[C@H](CCCCN)NC(=O)[C@@H](N)CS)C(=O)N[C@@H](CCCCN)C(=O)N[C@@H](Cc1c[nH]c2ccccc12)C(=O)N[C@@H](CCCN=C(N)N)C(=O)O [CKYLLKWR],MIC,[1],≥ 45.1 µM
same,MIC,[2],63.7 µM
same,MIC,[3],11.3 µM
same,MIC,[4],22.5 µM
same,MIC,[5],22.5 µM
same,MIC,[6],11.3 µM
same,MIC,[7],22.5 µM
same,MIC,[8],31.9 µM
same,MIC,[9],≥ 45.1 µM
CC[C@H](C)[C@H](NC(=O)[C@H](C)NC(=O)[C@@H]1CCCN1C(=O)[C@H](CC(C)C)NC(=O)[C@@H](N)Cc1ccccc1)C(=O)N[C@H](C(=O)NCC(=O)N[C@@H](CCSC)C(=O)N[C@@H](C)C(=O)N[C@@H](C)C(=O)N[C@@H](CCCCN)C(=O)N[C@H](C(=O)N[C@@H](CC(C)C)C(=O)N1CCC[C@H]1C(=O)N[C@@H](C)C(=O)N[C@@H](Cc1ccccc1)C(=O)N[C@@H](CC(C)C)C(=O)N[C@H]1CSSC[C@@H](C(=O)O)NC(=O)[C@H](CCCCN)NC(=O)[C@H](CCCCN)NC(=O)[C@H]([C@@H](C)O)NC(=O)[C@H]([C@@H](C)CC)NC(=O)[C@H](CCCCN)NC1=O)C(C)C)[C@@H](C)CC [FLPAIIGMAAKVLPAFLCKITKKC],MIC,[10],4.7 µM
same,MIC,[11],≥ 37.5 µM
same,MIC,[12],≥ 75 µM
same,MIC,[13],≥ 75 µM
same,MIC,[14],1.2 µM
same,MIC,[15],9.4 µM
same,MIC,[16],37.5 µM
CC(C)[C@H](NC(=O)[C@H](CCCCN)NC(=O)[C@H](CCCCN)NC(=O)[C@H](C)NC(=O)[C@H](CCCCN)NC(=O)[C@H](CCCCN)NC(=O)[C@H](Cc1ccccc1)NC(=O)[C@H](Cc1ccccc1)NC(=O)[C@H](CCCCN)NC(=O)[C@H](CCCCN)NC(=O)[C@H](Cc1c[nH]c2ccccc12)NC(=O)CN)C(=O)N[C@@H](Cc1c[nH]c2ccccc12)C(=O)N[C@@H](CCCCN)C(=O)O [GWKKFFKKAKKVWK],MIC,[17],≥ 141 µM
same,MIC,[18],≥ 70.7 µM
same,MIC,[19],≥ 141 µM
CC[C@H](C)[C@H](NC(=O)[C@H](CCSC)NC(=O)[C@H](CC(C)C)NC(=O)[C@H](Cc1ccccc1)NC(=O)[C@H](CCC(N)=O)NC(=O)[C@H](Cc1ccc(O)cc1)NC(=O)[C@H](CCCN=C(N)N)NC(=O)[C@@H](NC(=O)[C@@H](NC(=O)[C@@H](NC(=O)[C@H](CO)NC(=O)CNC(=O)[C@H](CCCN=C(N)N)NC(=O)[C@H](CCCN=C(N)N)NC(=O)[C@@H](N)CCCCN)C(C)C)[C@@H](C)O)[C@@H](C)O)C(=O)N[C@@H](Cc1cnc[nH]1)C(=O)N[C@@H](CC(C)C)C(=O)N[C@@H](CC(C)C)C(=O)N[C@@H](CCCN=C(N)N)C(=O)N1CCC[C@H]1C(=O)N[C@@H](CCCCN)C(=O)N[C@@H](CCCCN)C(=O)N[C@@H](CC(C)C)C(=O)N[C@@H](Cc1ccccc1)C(=O)N[C@@H](C)C(=O)O [KRRGSVTTRYQFLMIHLLRPKKLFA],MIC,[20],0.196 µM
same,MIC,[21],0.392 µM
same,MIC,[11],≥ 32.7 µM
same,MIC,[22],13.1 µM
same,MIC,[23],9.8 µM
same,MIC,[2],3.07 µM
same,MIC,[24],3.07 µM
same,MIC,[25],13.1 µM
same,MIC,[26],0.392 µM and > 0.196 µM
same,MIC,[27],13.4 µM
same,MIC,[28],13.1 µM
same,MIC,[3],≥ 32.7 µM
same,MIC,[29],≥ 32.7 µM
same,MIC,[30],≥ 32.7 µM
same,MIC,[31],3.07 µM
same,MIC,[32],> 32.7 µM
same,MIC,[33],24.5 µM
same,MIC,[34],0.196 µM
same,MIC,[35],3.07 µM
same,MIC,[36],≥ 32.7 µM
same,MIC,[37],≥ 32.7 µM
same,MIC,[38],13.1 µM
same,MIC,[39],6.14 µM
same,MIC,[40],1.54 µM
same,MIC,[16],2.9 µM
